In US4665083A, “Iminothiazolidine derivatives” (priority 1984, dated 1987):
Like-named read-outs stand apart in the source and are kept apart here.

Legend:
intestinal peristalsis = assay: animal or person; assay type: in vivo; details: for Therapeutical index (inhibition of intestinal peristalsis): LD50 and ED50 intestinal peristalsis, mice; for ED50: Mus musculus, po, read-out: Inhibition of intestinal peristalsis ED50
Description: (8) Antiperistaltic effect on mice
The antiperistaltic effect of the compounds is examined on mice weighing 20 to 25 g according to the method of Stickney and co-workers. Each dosis of the compound to be tested is administered, orally, 60 minutes prior to the administration of a 10 percent carbon suspension. […] 20 minutes after the administration of the carbon suspension, the animals are sacrificed, and the length of the entire small intestine as well as that of the small intestine filled with carbon are determined. The inhibition in relation to the control is calculated in percentage. […] From the values thus-transformed ED50 values are calculated.

acetic acid writhing = assay: animal or person; assay type: in vivo; details: for Therapeutical index (analgesic effect, writhing test): LD50 and ED50 writhing test, mice; for ED50: Mus musculus, ip, read-out: Analgesic effect (writhing test) ED50
Description: (9) Analgesic effect on mice (writhing test)
The test is carried out on mice according to the modified method of Newbould. 0.75 percent acetic acid is administered to the animals in a volume of 20 ml/kg, intraperitoneally, and the characteristic "writhing reactions" are counted for a period of 5 minutes, starting from the fifth minute after challenge. […] The inhibition relative to the control group is evaluated in percentage.

in vivo = details: mouse, mice, 7 days observation, Litchfield-Wilcoxon
Description: (1) Acute toxicity on mice
The acute toxicity is determined on mice of both sex (CFLP breed, body weight 18 to 22 g). For each dosis 6 animals are employed. The compounds tested are administered orally in a volume of 20 ml/kg body weight. After the administration the animals are observed for 7 days. During this period the animals are fed with standard mouse feed and water ad libitum. The toxicity values are determined according to Litchfield-Wilcoxon's method.

nicotine lethality = assay: Inhibition of nicotine spasm / nicotine lethality; assay type: in vivo, mice; details: for Therapeutical index (inhibition of nicotine lethality): LD50 and ED50 nicotine lethality; for ED50: Mus musculus, read-out: Inhibition of nicotine lethality ED50
Description: (5) Inhibition of nicotine spasm
The test is carried out on mice according to Stone.

Tetrabenazine ptosis = assay: animal or person; assay type: in vivo; details: for Therapeutical index (tetrabenazine ptosis antagonism): LD50 and ED50 tetrabenazine ptosis, mice; for ED50: Mus musculus, po, read-out: Tetrabenazine ptosis antagonism ED50
Description: (2) Tetrabenazine ptosis antagonism on mice
The tetrabenazine ptosis antagonism of the compounds are tested on groups consisting of 10 mice each. […] 30 minutes after the introduction of the active agent or the vehicle, 50 mg/kg of tetrabenazine (3-isobutyl-9,10-[…]-1,2,3,4,6,7-hexahydrobenzo[a]quinolizine-2-one) are administered, intraperitoneally, and the animals with ptosis are counted 30, 60, 90 and 120 minutes after the administration of the tetrabenazine.
Evaluation: the average ptosis value is calculated in each group, and the deviation from the average obtained for the control group (inhibition) is given in percentage. From the data obtained ED50 values are calculated.

Reserpine ptosis = assay: animal or person; assay type: in vivo; details: for Therapeutical index (reserpine ptosis antagonism): LD50 and ED50 reserpine ptosis, mice; for ED50: Mus musculus, sc, 1 h, read-out: Reserpine ptosis antagonism ED50
Description: (3) Reserpine ptosis antagonism on mice
Each group consisting of 10 mice are treated with 6 mg/kg of reserpine, subcutaneously. […] The animals with ptosis are counted 60 and 120 minutes after the administration of the compounds to be tested. Evaluation is carried out as given under point (2) above.

pentatetrazole spasm = assay: animal or person; assay type: in vivo; details: for Therapeutical index (inhibition of pentatetrazole spasm): LD50 and ED50 pentatetrazole spasm, mice; for ED50: Mus musculus, po, read-out: Inhibition of pentatetrazole spasm ED50
Description: (6) Inhibition of pentatetrazole spasm
The test is performed on mice according to a modified method of Banziger and Hane.

[1] = mice, oral, 1 hour before 1.4 mg/kg i.v. nicotine

| Compound | Therapeutical index (inhibition of intestinal peristalsis) (intestinal peristalsis) | ED50 (intestinal peristalsis) [mg/kg] | Therapeutical index (analgesic effect, writhing test) (acetic acid writhing) | ED50 (acetic acid writhing) [mg/kg] | LD50 at 168 h (in vivo; po) [mg/kg] | other results |
| --- | --- | --- | --- | --- | --- | --- |
| N=C1SCCN1c1ccc(C(F)(F)F)cc1N [Compound 4 (diethanesulfonate)] | 52 | 25 | 8.1 | 160 | – | – |
| N=C1SCCN1c1cc(Cl)ccc1[N+](=O)[O-] [Compound 9, 3-(5-chloro-2-nitrophenyl)-2-iminothiazolidine] | 38.9 | 18 | 13 | 54 | 700 | – |
| N=C1SCCN1c1ccccc1[N+](=O)[O-] [Compound 10, 3-(2-nitrophenyl)-2-iminothiazolidine] | 5 | 140 | 17.5 | 40 | 700 | Therapeutical index (inhibition of nicotine lethality) (nicotine lethality; mice): 24; ED50 (nicotine lethality; po): 50 mg/kg |
| Cl.N=C1SCCN1c1ccc(C(F)(F)F)cc1N [Compound 4, 3-(2-amino-4-trifluoromethylphenyl)-2-iminothiazolidine hydrochloride] | 19.7 | 66 | – | – | 1300 | Therapeutical index (tetrabenazine ptosis antagonism) (Tetrabenazine ptosis): 32.5; ED50 (Tetrabenazine ptosis): 40 mg/kg; Therapeutical index (reserpine ptosis antagonism) (Reserpine ptosis): 38; ED50 (Reserpine ptosis): 34 mg/kg; Therapeutical index (inhibition of pentatetrazole spasm) (pentatetrazole spasm): 8.1; ED50 (pentatetrazole spasm): 160 mg/kg |
| CC(=O)Nc1ccc(O)cc1 [Paracetamol, reference compound] | – | – | – | 180 | – | – |
| COc1ccc(N2CCSC2=N)c(N)c1.Cl.Cl [Compound 7, 3-(2-amino-4-methoxyphenyl)-2-iminothiazolidine dihydrochloride] | – | – | – | – | 1200 | Therapeutical index (tetrabenazine ptosis antagonism) (Tetrabenazine ptosis): 75; ED50 (Tetrabenazine ptosis): 16 mg/kg |
| COc1ccc(Cc2nccc3cc(OC)c(OC)cc23)cc1OC [Papaverine, reference compound] | 2.01 | 185 | – | – | – | LD50 at 168 h (in vivo; oral): 380 mg/kg |
| CCS(=O)(=O)O.CCS(=O)(=O)O.COc1ccc(N2CCSC2=N)c(N)c1 [Compound 7 (diethanesulfonate), 2-imino-3-(2'-amino-4'-methoxyphenyl)-thiazolidine di(ethanesulfonate)] | 10 | 200 | – | – | 2000 | – |
| N=C1SCCN1c1ccc(N)cc1[N+](=O)[O-] [Compound 15, 3-(4-amino-2-nitrophenyl)-2-iminothiazolidine] | 12 | 130 | 10.4 | 115 | 1200 | – |
| Cl.N=C1SCCN1c1ccc(Cl)cc1[N+](=O)[O-] [Compound 5, 3-(4-chloro-2-nitrophenyl)-2-iminothiazolidine hydrochloride] | – | – | – | – | 1100 | Therapeutical index (inhibition of nicotine lethality) (nicotine lethality; mice): 122; ED50 (nicotine lethality; [1]): 9 mg/kg; Therapeutical index (inhibition of pentatetrazole spasm) (pentatetrazole spasm): 16.6; ED50 (pentatetrazole spasm): 66 mg/kg |
| OC(CCN1CCCCC1)(c1ccccc1)C1CCCCC1 (stereo not drawn) [Trihexyphenidyl, reference compound] | – | – | – | – | – | ED50 (nicotine lethality; [1]): 40 mg/kg |
| Cl.N=C1SCCN1c1ccc(C(F)(F)F)cc1[N+](=O)[O-] [Compound 6, 3-(2-nitro-4-trifluoromethylphenyl)-2-iminothiazolidine hydrochloride] | 100 | 8 | – | – | 800 | – |
| Br.COc1ccc(N2CCSC2=N)c([N+](=O)[O-])c1 [Compound 11, 3-(4-methoxy-2-nitrophenyl)-2-iminothiazolidine hydrobromide] | 6.2 | 105 | – | – | 650 | Therapeutical index (tetrabenazine ptosis antagonism) (Tetrabenazine ptosis): 16.3; ED50 (Tetrabenazine ptosis): 40 mg/kg; Therapeutical index (reserpine ptosis antagonism) (Reserpine ptosis): 16.3; ED50 (Reserpine ptosis): 40 mg/kg; Therapeutical index (inhibition of nicotine lethality) (nicotine lethality; mice): 14.4; ED50 (nicotine lethality; [1]): 45 mg/kg; Therapeutical index (inhibition of pentatetrazole spasm) (pentatetrazole spasm): 19.11; ED50 (pentatetrazole spasm): 34 mg/kg |
